Assay results as given in US8030478B2, “Method for nucleic acid replication and novel artificial base pairs” (priority 2005, dated 2011).
Like-named read-outs stand apart in the source and are kept apart here.

Molecular target: T7 RNA polymerase (Escherichia phage T7, UniProt P00573)
Conditions: for Composition of nucleotide incorporated as 5′ neighbor of U: Ap / Composition of nucleotide incorporated as 5′ neighbor of U: Gp / Composition of nucleotide incorporated as 5′ neighbor of U: Np (Dsp) / Composition of nucleotide incorporated as 5′ neighbor of U: Up / Composition of nucleotide incorporated as 5′ neighbor of U: Cp: [α-32P]UTP; for Composition of nucleotide incorporated as 5′ neighbor of A: Up / Composition of nucleotide incorporated as 5′ neighbor of A: Np (Dsp) / Composition of nucleotide incorporated as 5′ neighbor of A: Ap / Composition of nucleotide incorporated as 5′ neighbor of A: Gp / Composition of nucleotide incorporated as 5′ neighbor of A: Cp: [α-32P]ATP; for Composition of nucleotide incorporated as 5′ neighbor of A: Cp: theoretical [7]
[1] = Entry 14, template temp35Pa-4, natural NTP 1 mM, Ds 1 mM, theoretical [0]
[2] = Entry 14, template temp35Pa-4, natural NTP 1 mM, Ds 1 mM, theoretical [1]
[3] = Entry 15, template temp35Pa-4, natural NTP 1 mM, Ds 3 mM, theoretical [0]
[4] = Entry 15, template temp35Pa-4, natural NTP 1 mM, Ds 3 mM, theoretical [1]
[5] = Entry 16, template temp35Pa′-4, natural NTP 1 mM, Ds 1 mM, theoretical [0]
[6] = Entry 16, template temp35Pa′-4, natural NTP 1 mM, Ds 1 mM, theoretical [1]
[7] = Entry 17, template temp35Pa′-4, natural NTP 1 mM, Ds 3 mM, theoretical [0]
[8] = Entry 17, template temp35Pa′-4, natural NTP 1 mM, Ds 3 mM, theoretical [1]
[9] = Entry 18, template temp35C-4, natural NTP 1 mM, Ds 1 mM, theoretical [0]
[10] = Entry 18, template temp35C-4, natural NTP 1 mM, Ds 1 mM, theoretical [1]
[11] = Entry 19, template temp35C-4, natural NTP 1 mM, Ds 3 mM, theoretical [0]
[12] = Entry 19, template temp35C-4, natural NTP 1 mM, Ds 3 mM, theoretical [1]
[13] = Entry 20, template temp35T-4, natural NTP 1 mM, Ds 1 mM, theoretical [0]
[14] = Entry 20, template temp35T-4, natural NTP 1 mM, Ds 1 mM, theoretical [1]
[15] = Entry 21, template temp35T-4, natural NTP 1 mM, Ds 3 mM, theoretical [0]
[16] = Entry 21, template temp35T-4, natural NTP 1 mM, Ds 3 mM, theoretical [1]
[17] = Entry 29, template DNA14, natural NTP 2 mM, Ds 2 mM, theoretical [6]
[18] = Entry 31, template DNAcont4, natural NTP 2 mM, Ds 2 mM, theoretical [6]
[19] = Entry 36, template DNA13, natural NTP 2 mM, Ds 2 mM, theoretical [4]
[20] = Entry 37, template DNA14, natural NTP 2 mM, Ds 2 mM, theoretical [4]
[21] = Entry 39, template DNAcont4, natural NTP 2 mM, Ds 2 mM, theoretical [4]

T7 RNA polymerase, sequence (P00573 whole entry): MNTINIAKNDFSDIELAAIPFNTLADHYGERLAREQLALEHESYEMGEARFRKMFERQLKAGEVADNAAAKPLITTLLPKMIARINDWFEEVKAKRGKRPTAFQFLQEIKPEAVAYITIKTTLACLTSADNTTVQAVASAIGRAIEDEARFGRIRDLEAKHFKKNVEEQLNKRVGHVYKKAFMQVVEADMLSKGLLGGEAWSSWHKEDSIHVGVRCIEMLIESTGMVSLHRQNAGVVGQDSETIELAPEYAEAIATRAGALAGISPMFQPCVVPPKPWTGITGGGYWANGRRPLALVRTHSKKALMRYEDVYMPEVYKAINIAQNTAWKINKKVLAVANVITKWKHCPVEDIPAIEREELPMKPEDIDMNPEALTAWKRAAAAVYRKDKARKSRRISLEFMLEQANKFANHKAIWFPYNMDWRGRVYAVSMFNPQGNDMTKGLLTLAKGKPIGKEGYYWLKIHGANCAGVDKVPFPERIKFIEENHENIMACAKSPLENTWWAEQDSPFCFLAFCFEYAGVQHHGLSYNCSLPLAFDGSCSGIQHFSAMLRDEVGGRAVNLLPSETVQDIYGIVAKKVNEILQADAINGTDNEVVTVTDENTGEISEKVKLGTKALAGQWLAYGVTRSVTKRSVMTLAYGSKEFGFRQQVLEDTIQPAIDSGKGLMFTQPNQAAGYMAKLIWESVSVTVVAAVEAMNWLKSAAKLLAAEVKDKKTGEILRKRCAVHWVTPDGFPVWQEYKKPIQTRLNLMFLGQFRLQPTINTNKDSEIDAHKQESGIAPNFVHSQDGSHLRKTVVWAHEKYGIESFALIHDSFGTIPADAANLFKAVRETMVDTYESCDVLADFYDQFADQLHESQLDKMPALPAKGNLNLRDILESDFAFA
Description: Transcription (20 μl) was accomplished in 40 mM Tris-HCl buffer (pH 8.0) containing 24 mM MgCl2, 2 mM spermidine, 5 mM DTT, 0.01% Triton X-100, 1-3 mM each natural NTP, 0-3 mM Pa′TP, 0-3 mM DsTP, 10 mM GMP, 2 μM template DNA (for 17-mer transcript synthesis) or 0.5 μM template DNA (for tRNA transcript synthesis), and 2.5 units/μl T7 RNA polymerase (TAKARA). […] For nucleotide composition analysis in transcripts (Non-patent Documents 17 and 33), the transcripts were internally labeled with 2 μCi [α-^32P]UTP or [α-^32P]ATP (Amersham). After the transcription, the products were digested with 0.75 units of RNase T2 at 37° C. for 2 hours in 10 μl of 15 mM sodium acetate buffer (pH 4.5). For 17-mer analysis, 0.05 A260 units of E. coli tRNA (Sigma) was added to the digestion reaction solution. The digestion products were analyzed by 2D-TLC (HPTLC plate, 100×100 mm, Merck). The developing solvents used for the first and second dimensions were isobutyric acid-ammonia-water (66:1:33 v/v/v) and isopropyl alcohol-HCl-water (70:15:15 v/v/v or 75:15:10 v/v/v for Pa′ transcripts), respectively. Spots of the labeled nucleotides on the TLC plate were analyzed with a bio-imaging analyzer.
The internally ^32P-labeled transcripts were digested with Rnase T2, and the resulting labeled nucleoside 3′-monophosphates were analyzed by 2D thin-layer chromatography (2D-TLC).

With O=P(O)(O)OP(=O)(O)OP(=O)(O)OC[C@H]1O[C@@H](n2cnc3c(-c4cccs4)ccnc32)[C@H](O)[C@@H]1O [DsTP, 7-(2-Thienyl)-3-(β-D-ribofuranosyl)-3H-imidazo[4,5-b]pyridine 5′-triphosphate] as the molecule, how does the “Composition of nucleotide incorporated as 5′ neighbor of U: Ap” value (shortened to “Composition … of U: Ap”) [1] read?
Its value is 0.02 [0].

And the “Composition of nucleotide incorporated as 5′ neighbor of U: Gp” value (“Composition … of U: Gp” below) [1]?
The value was “n.d. [0]”.

And the “Composition of nucleotide incorporated as 5′ neighbor of U: Np (Dsp)” value (from here on “Composition … of U: Np (Dsp)”) [2]?
The value was 0.98 [1].

What about the “Composition of nucleotide incorporated as 5′ neighbor of U: Up” value (“Composition … of U: Up” for short) [2] of the same molecule?
Its value is 1.00 [1].

What about the “Composition of nucleotide incorporated as 5′ neighbor of U: Cp” value (shortened to “Composition … of U: Cp”) (Entry 14, template temp35Pa-4, natural NTP 1 mM, Ds 1 mM, theoretical [2]) of the same molecule?
Its value is 1.99 [2].

What about the “Composition … of U: Ap” value [3] of the same molecule?
The value was 0.01 [0].

What about the “Composition … of U: Gp” value [3] of the same molecule?
The value was “n.d. [0]”.

And the “Composition … of U: Np (Dsp)” value [4]?
The value was 0.99 [1].

And the “Composition … of U: Up” value [4]?
Its value is 1.01 [1].

And the “Composition … of U: Cp” value (Entry 15, template temp35Pa-4, natural NTP 1 mM, Ds 3 mM, theoretical [2])?
The value was 1.99 [2].

What about the “Composition … of U: Ap” value [5] of the same molecule?
Its value is 0.05 [0].

And the “Composition … of U: Gp” value [5]?
The value was “n.d. [0]”.

And the “Composition … of U: Np (Dsp)” value [6]?
Its value is 0.94 [1].

And the “Composition … of U: Up” value [6]?
The value was 1.02 [1].

What about the “Composition … of U: Cp” value (Entry 16, template temp35Pa′-4, natural NTP 1 mM, Ds 1 mM, theoretical [2]) of the same molecule?
Its value is 1.98 [2].

What about the “Composition … of U: Ap” value [7] of the same molecule?
Its value is 0.02 [0].

And the “Composition … of U: Gp” value [7]?
The value was “n.d. [0]”.

What about the “Composition … of U: Np (Dsp)” value [8] of the same molecule?
The value was 0.96 [1].

And the “Composition … of U: Up” value [8]?
Its value is 1.02 [1].

And the “Composition … of U: Cp” value (Entry 17, template temp35Pa′-4, natural NTP 1 mM, Ds 3 mM, theoretical [2])?
Its value is 1.99 [2].

And the “Composition … of U: Ap” value [9]?
The value was 0.01 [0].

What about the “Composition … of U: Np (Dsp)” value [9] of the same molecule?
The value was “n.d. [0]”.

And the “Composition … of U: Gp” value [10]?
Its value is 0.98 [1].

And the “Composition … of U: Up” value [10]?
Its value is 1.00 [1].

What about the “Composition … of U: Cp” value (Entry 18, template temp35C-4, natural NTP 1 mM, Ds 1 mM, theoretical [2]) of the same molecule?
Its value is 2.01 [2].

And the “Composition … of U: Ap” value [11]?
The value was 0.01 [0].

What about the “Composition … of U: Np (Dsp)” value [11] of the same molecule?
Its value is “n.d. [0]”.

And the “Composition … of U: Gp” value [12]?
Its value is 0.97 [1].

What about the “Composition … of U: Up” value [12] of the same molecule?
Its value is 1.00 [1].

And the “Composition … of U: Cp” value (Entry 19, template temp35C-4, natural NTP 1 mM, Ds 3 mM, theoretical [2])?
The value was 2.03 [2].

What about the “Composition … of U: Gp” value [13] of the same molecule?
The value was “n.d. [0]”.

What about the “Composition … of U: Np (Dsp)” value [13] of the same molecule?
The value was “n.d. [0]”.

And the “Composition … of U: Ap” value [14]?
The value was 0.99 [1].

And the “Composition … of U: Up” value [14]?
The value was 1.02 [1].

What about the “Composition … of U: Cp” value (Entry 20, template temp35T-4, natural NTP 1 mM, Ds 1 mM, theoretical [2]) of the same molecule?
The value was 1.99 [2].

What about the “Composition … of U: Gp” value [15] of the same molecule?
Its value is “n.d. [0]”.

What about the “Composition … of U: Np (Dsp)” value [15] of the same molecule?
The value was “n.d. [0]”.

And the “Composition … of U: Ap” value [16]?
Its value is 0.99 [1].

And the “Composition … of U: Up” value [16]?
Its value is 1.01 [1].

What about the “Composition … of U: Cp” value (Entry 21, template temp35T-4, natural NTP 1 mM, Ds 3 mM, theoretical [2]) of the same molecule?
Its value is 2.00 [2].

What about the “Composition of nucleotide incorporated as 5′ neighbor of A: Up” value (“Composition … of A: Up” below) (Entry 28, template DNA13, natural NTP 2 mM, Ds 2 mM, theoretical [0]) of the same molecule?
Its value is 0.05 [0].

What about the “Composition of nucleotide incorporated as 5′ neighbor of A: Np (Dsp)” value (from here on “Composition … of A: Np (Dsp)”) (Entry 28, template DNA13, natural NTP 2 mM, Ds 2 mM, theoretical [1]) of the same molecule?
Its value is 0.96 [1].

And the “Composition of nucleotide incorporated as 5′ neighbor of A: Ap” value (“Composition … of A: Ap” for short) (Entry 28, template DNA13, natural NTP 2 mM, Ds 2 mM, theoretical [5])?
The value was 5.04 [5].

What about the “Composition of nucleotide incorporated as 5′ neighbor of A: Gp” value (shortened to “Composition … of A: Gp”) (Entry 28, template DNA13, natural NTP 2 mM, Ds 2 mM, theoretical [6]) of the same molecule?
The value was 6.02 [6].

What about the “Composition of nucleotide incorporated as 5′ neighbor of A: Cp” value (“Composition … of A: Cp” below) (Entry 28, template DNA13, natural NTP 2 mM, Ds 2 mM) of the same molecule?
Its value is 6.93 [7].

What about the “Composition … of A: Up” value (Entry 29, template DNA14, natural NTP 2 mM, Ds 2 mM, theoretical [0]) of the same molecule?
Its value is 0.03 [0].

And the “Composition … of A: Np (Dsp)” value (Entry 29, template DNA14, natural NTP 2 mM, Ds 2 mM, theoretical [1])?
The value was 0.96 [1].

And the “Composition … of A: Ap” value [17]?
The value was 6.13 [6].

What about the “Composition … of A: Gp” value [17] of the same molecule?
The value was 5.96 [6].

And the “Composition … of A: Cp” value (Entry 29, template DNA14, natural NTP 2 mM, Ds 2 mM)?
Its value is 6.93 [7].

And the “Composition … of A: Np (Dsp)” value (Entry 31, template DNAcont4, natural NTP 2 mM, Ds 2 mM, theoretical [0])?
Its value is 0.02 [0].

And the “Composition … of A: Up” value (Entry 31, template DNAcont4, natural NTP 2 mM, Ds 2 mM, theoretical [1])?
The value was 1.09 [1].

And the “Composition … of A: Ap” value [18]?
The value was 6.10 [6].

And the “Composition … of A: Gp” value [18]?
Its value is 5.98 [6].

And the “Composition … of A: Cp” value (Entry 31, template DNAcont4, natural NTP 2 mM, Ds 2 mM)?
Its value is 6.83 [7].

And the “Composition … of U: Np (Dsp)” value (Entry 36, template DNA13, natural NTP 2 mM, Ds 2 mM, theoretical [0])?
Its value is “n.d. [0]”.

What about the “Composition … of U: Ap” value (Entry 36, template DNA13, natural NTP 2 mM, Ds 2 mM, theoretical [2]) of the same molecule?
Its value is 2.00 [2].

And the “Composition … of U: Gp” value [19]?
The value was 3.97 [4].

And the “Composition … of U: Up” value [19]?
The value was 4.03 [4].

What about the “Composition … of U: Cp” value (Entry 36, template DNA13, natural NTP 2 mM, Ds 2 mM, theoretical [5]) of the same molecule?
Its value is 4.99 [5].

What about the “Composition … of U: Np (Dsp)” value (Entry 37, template DNA14, natural NTP 2 mM, Ds 2 mM, theoretical [0]) of the same molecule?
The value was 0.01 [0].

What about the “Composition … of U: Ap” value (Entry 37, template DNA14, natural NTP 2 mM, Ds 2 mM, theoretical [2]) of the same molecule?
Its value is 1.99 [2].

What about the “Composition … of U: Cp” value [20] of the same molecule?
Its value is 4.02 [4].

What about the “Composition … of U: Gp” value [20] of the same molecule?
The value was 3.91 [4].

And the “Composition … of U: Up” value [20]?
Its value is 4.08 [4].

And the “Composition … of U: Np (Dsp)” value (Entry 39, template DNAcont4, natural NTP 2 mM, Ds 2 mM, theoretical [0])?
The value was 0.01 [0].

What about the “Composition … of U: Ap” value (Entry 39, template DNAcont4, natural NTP 2 mM, Ds 2 mM, theoretical [2]) of the same molecule?
Its value is 1.99 [2].

What about the “Composition … of U: Gp” value [21] of the same molecule?
The value was 3.95 [4].

What about the “Composition … of U: Up” value [21] of the same molecule?
The value was 4.05 [4].

And the “Composition … of U: Cp” value (Entry 39, template DNAcont4, natural NTP 2 mM, Ds 2 mM, theoretical [5])?
The value was 5.01 [5].
